# From the supplement of paper PMC10307832
# Columns and labels:
# Assay in all cases: relative viability (nuclei count vs DMSO), 5 days (fraction); higher = more cells survive
# Linifanib + Bortezomib = compound: Cc1ccc(F)c(NC(=O)Nc2ccc(-c3cccc4[nH]nc(N)c34)cc2)c1 [Linifanib] + CC(C)C[C@H](NC(=O)[C@H](Cc1ccccc1)NC(=O)c1cnccn1)B(O)O [Bortezomib] (partner 0.002 µM)
# Summary of the method: (§1)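 Lung cancer cell lines in 1536-well plates were dosed by pin tool the day after seeding, either with one drug alone or with a fixed anchor-drug dose plus five library-drug doses (not always all listed) in √10 steps. After 5 days, cells were fixed and their nuclei stained in one step (final 0.05% Triton X-100, 1% formaldehyde, 1 ug/ml Hoechst), then counted on 4× images. Relative viability is the nuclei count in treated wells divided by that in vehicle wells. Values are medians of duplicate plates.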
# Linifanib + Phenformin = compound: Cc1ccc(F)c(NC(=O)Nc2ccc(-c3cccc4[nH]nc(N)c34)cc2)c1 [Linifanib] + N=C(N)NC(=N)NCCc1ccccc1 [Phenformin] (partner 250 µM)
# Summary of the method: as §1
# Linifanib + Lapatinib = compound: Cc1ccc(F)c(NC(=O)Nc2ccc(-c3cccc4[nH]nc(N)c34)cc2)c1 [Linifanib] + CS(=O)(=O)CCNCc1ccc(-c2ccc3ncnc(Nc4ccc(OCc5cccc(F)c5)c(Cl)c4)c3c2)o1 [Lapatinib] (partner 2 µM)
# Summary of the method: as §1
Cell Line,relative viability (Linifanib + Bortezomib; first compound 0.03162 µM),relative viability (Linifanib + Bortezomib; first compound 0.1 µM),relative viability (Linifanib + Bortezomib; first compound 0.3162 µM),relative viability (Linifanib + Phenformin; first compound 0.03162 µM),relative viability (Linifanib + Phenformin; first compound 0.1 µM),relative viability (Linifanib + Phenformin; first compound 0.3162 µM),relative viability (Linifanib + Lapatinib; first compound 0.03162 µM),relative viability (Linifanib + Lapatinib; first compound 0.1 µM),relative viability (Linifanib + Lapatinib; first compound 0.3162 µM)
NCI-H1651,0.967,0.934,0.895,0.314,0.368,0.309,0.981,0.88,0.817
LCLC-103H,1.19,1.16,1.15,0.329,0.338,0.329,–,–,–
LXF-289,1.04,1.01,0.952,0.558,0.536,0.496,0.914,0.936,0.831
NCI-H2023,1.03,1.28,0.975,0.398,0.479,0.392,0.801,1.06,0.733
NCI-H650,0.816,0.814,0.864,0.45,0.449,0.439,1.16,0.941,0.766
NCI-H1395,–,–,–,0.444,0.454,0.414,0.986,0.982,1.14
NCI-H322M,1.24,1.21,1.27,0.756,0.819,0.737,0.582,0.539,0.537
NCI-H23,1.03,1.2,1.16,0.773,0.838,0.749,0.991,1.14,1.01
ABC-1,0.25,0.343,0.285,0.271,0.234,0.24,1.15,1.13,0.93
NCI-H3122,1.01,1,0.989,0.381,0.399,0.362,1.11,1.11,0.922
EPLC-272H,1.21,1.04,0.785,0.298,0.318,0.325,0.956,0.913,0.814
NCI-H1793,–,–,–,0.278,0.379,0.321,0.7,0.765,0.765
COR-L 105,0.954,0.851,0.735,0.577,0.548,0.465,0.388,0.381,0.333
LK-2,–,–,–,0.447,0.691,0.4,0.931,1.06,0.915
NCI-H1792,0.93,0.975,0.937,0.517,0.519,0.337,0.961,0.973,0.891
NCI-H2347,1.11,1.16,0.778,0.517,0.864,0.298,0.955,0.927,0.909
LOU-NH91,0.47,0.548,0.463,0.734,0.806,0.732,0.772,0.828,0.747
NCI-H1355,1.23,1.26,1.26,0.449,0.496,0.425,1.04,0.934,1.01
NCI-H2085,1.07,1.06,0.971,0.878,0.786,0.712,0.809,0.83,0.734
SK-MES-1,–,–,–,0.704,0.692,0.653,0.456,0.534,0.384
SW 1573,0.972,1.04,1.08,0.411,0.363,0.438,1.27,1.27,1.15
BEN,0.723,0.975,0.778,0.252,0.245,0.243,0.6,0.767,0.713
ChaGo-K-1,0.946,1.18,0.926,0.488,0.581,0.478,–,–,–
EKVX,0.863,1.03,0.698,0.241,0.25,0.194,0.209,0.24,0.222

Cell Line,relative viability (Linifanib + Bortezomib; first compound 0.03162 µM),relative viability (Linifanib + Bortezomib; first compound 0.1 µM),relative viability (Linifanib + Bortezomib; first compound 0.3162 µM),relative viability (Linifanib + Phenformin; first compound 0.03162 µM),relative viability (Linifanib + Phenformin; first compound 0.1 µM),relative viability (Linifanib + Phenformin; first compound 0.3162 µM),relative viability (Linifanib + Lapatinib; first compound 0.03162 µM),relative viability (Linifanib + Lapatinib; first compound 0.1 µM),relative viability (Linifanib + Lapatinib; first compound 0.3162 µM)
HARA,1.14,1.11,1.06,0.446,0.539,0.476,0.815,0.905,0.73
PC-14,0.924,0.989,0.746,0.557,0.59,0.491,0.32,0.436,0.305
NCI-H520,0.773,1.07,0.497,0.493,0.666,0.552,1,1.03,0.895
HCC-78,0.455,0.429,0.472,0.675,0.761,0.686,1.23,0.976,0.674
COR-L23,1.12,1.17,0.831,0.464,0.431,0.399,1.09,0.905,0.921
LU99A,1.13,1.16,1.21,0.878,0.892,0.793,1.07,1.06,1.05
PC-3 [JPC-3],0.728,0.805,0.77,0.491,0.474,0.442,0.482,0.413,0.496
NCI-H358,–,–,–,0.375,0.385,0.322,0.531,0.543,0.433
NCI-H838,1.24,1.08,0.968,0.79,0.642,0.542,1.01,1.11,0.933
HCC-827,1.04,0.991,0.977,0.432,0.453,0.382,0.19,0.173,0.191
NCI-H2087,1.06,0.608,0.849,0.431,0.51,0.431,1.15,1.2,0.672
EMC-BAC-2,1.11,1.13,1.12,0.625,0.582,0.544,0.901,0.992,0.844
201T,1.05,1.09,1.08,0.503,0.473,0.422,1.07,1.03,1.05
RERF-LC-KJ,1.25,1.22,0.991,0.404,0.479,0.439,0.885,0.891,0.868
NCI-H2228,0.815,1.32,0.959,0.242,0.296,0.301,0.998,1.3,0.922
NCI-H2405,1.05,0.958,0.957,0.396,0.4,0.382,1.19,1.05,1.12
SK-LU-1,1.11,1.2,1.19,0.528,0.622,0.58,0.84,1.12,0.738
CAL-12T,1.06,1.01,0.8,0.636,0.617,0.458,0.75,0.819,0.534
NCI-H1975,0.504,0.376,0.389,0.418,0.433,0.406,0.898,1.11,0.874
SW 900,–,–,–,0.659,0.779,0.575,–,–,–
NCI-H1755,1.04,0.965,0.916,0.666,0.621,0.571,1.1,1.09,1.01
HCC-44,0.925,0.915,0.818,0.29,0.195,0.248,1.04,1,0.989
NCI-H596,0.899,1.06,1.08,0.707,0.734,0.899,1.05,1.08,1.01
A-427,1.04,1.05,0.949,0.346,0.428,0.294,1.06,1.01,0.955

Cell Line,relative viability (Linifanib + Bortezomib; first compound 0.03162 µM),relative viability (Linifanib + Bortezomib; first compound 0.1 µM),relative viability (Linifanib + Bortezomib; first compound 0.3162 µM),relative viability (Linifanib + Phenformin; first compound 0.03162 µM),relative viability (Linifanib + Phenformin; first compound 0.1 µM),relative viability (Linifanib + Phenformin; first compound 0.3162 µM),relative viability (Linifanib + Lapatinib; first compound 0.03162 µM),relative viability (Linifanib + Lapatinib; first compound 0.1 µM),relative viability (Linifanib + Lapatinib; first compound 0.3162 µM)
HOP-62,0.617,0.969,0.728,0.736,0.689,0.653,1.02,0.739,1.02
NCI-H2342,–,–,–,0.679,0.624,0.667,–,–,–
NCI-H647,1.25,1.14,1.07,0.654,0.441,0.522,1.22,1.29,1.01
NCI-H2170,–,–,–,0.426,0.411,0.378,0.255,0.277,0.279
LCLC-97TM1,0.866,0.868,0.56,0.423,0.437,0.341,1.51,0.984,0.858
NCI-H661,0.88,0.915,0.645,0.288,0.281,0.313,0.483,0.449,0.42
NCI-H1734,1.04,1.15,0.93,0.384,0.454,0.366,1.04,1.19,1.01
H3255,0.809,0.781,0.728,0.345,0.203,0.438,0.246,0.508,0.242
HCC-15,1.04,0.99,0.988,0.501,0.567,0.479,0.841,0.839,0.853
NCI-H2126,1.05,1.1,1.14,0.557,0.535,0.542,0.792,0.788,0.779
NCI-H1915,1.01,0.937,0.98,0.368,0.378,0.352,1.08,0.925,0.89
NCI-H441,0.496,0.43,0.371,0.854,0.93,0.899,–,–,–
NCI-H1437,0.644,0.688,0.491,0.32,0.296,0.276,0.957,0.801,0.77
LC-2-ad,0.976,1.23,0.98,0.645,0.609,0.505,1.06,1.04,0.883
UMC-11,0.961,0.731,0.668,0.334,0.327,0.326,1,1.1,1.06
NCI-H1650,0.216,0.212,0.199,0.428,0.571,0.412,0.797,0.9,0.721
NCI-H1666,0.892,0.756,0.643,0.577,0.559,0.548,0.792,0.649,0.705
NCI-H1993,1.1,1.39,1.2,0.44,0.514,0.504,0.796,0.853,0.878
NCI-H727,0.934,0.922,0.702,0.609,0.574,0.609,0.781,1.05,0.716
NCI-H1944,–,–,–,0.212,0.205,0.2,0.943,0.881,0.645
HCC-366,1,1.1,1.02,0.575,0.62,0.635,1.02,1.12,0.895
NCI-H2009,1.25,1.05,0.963,0.483,0.493,0.459,1.23,0.928,0.941
NCI-H460,1.03,1.18,0.925,0.546,0.542,0.489,1.1,1.11,0.697
